Measured values published in patent publication US20210195924A1, “PHOTODYNAMIC INACTIVATION METHOD OF SALMONELLA” (SHANGHAI OCEAN UNIVERSITY, priority 2019, published 2021).

How the values were obtained:
[1] = tested on: Salmonella on contaminated egg shells; assay: Salmonella inactivation experiment for fresh egg shells; type: cell-based
Method: Sterile egg shells were mixed with a Salmonella bacterial solution to be contaminated and divided into three groups as follows: 1, a single photosensitizer group with riboflavin concentration of 150 μmol/L, was subjected to the dark incubation for 40 min without the illumination of a blue light source; 2, a photodynamic experiment group with riboflavin concentration of 150 μmol/L, was subjected to the dark incubation for 40 min under the illumination of the blue light source for 40 min; and 3, a blank reference group with a saline solution having a volume equal to that of the riboflavin solution. Each group was provided with two parallel groups.
Bacteria culture: under a sterile condition, each group of egg shells was diluted with the saline solution for two times and then homogenized by a sterile homogenizing device and diluted. 100 μL diluent with appropriate dilution degrees was inoculated into the TSA solid culture medium and cultured for 24 to 48 h in the thermostatic incubator at 37° C. The number of bacterial colonies in each group was counted.

[2] = tested on: vesicular stomatitis virus; conditions: ultraviolet radiation; riboflavin 300 μmol/L; under 10 minutes; cited from earlier work
[3] = tested on: Salmonella typhimurium CICC 21484 and Salmonella enteritidis CMCC 50041; assay: Riboflavin-mediated photodynamic inactivation of Salmonella in bacterial solution (455-460 nm LED blue light, plate count); type: cell-based
Staphylococcus aureus = conditions: Gram-positive bacteria Staphylococcus aureus; cited from earlier work
Escherichia coli = conditions: Gram-negative bacteria Escherichia coli; cited from earlier work

| Molecule | sterilization rate ([1]; egg shells, photodynamic inactivation with riboflavin as photosensitizer, multiple experiments) [%] | number of bacterial colonies in the egg shells after the PDI treatment ([1]; riboflavin 150 μmol/L, dark incubation 40 min, blue light 40 min, blank reference group 7.4×10^5 CFU/g) | number of bacterial colonies in the egg shells of the single photosensitizer group ([1]; riboflavin 150 μmol/L, dark incubation 40 min, no blue light, blank reference group 7.4×10^5 CFU/g) | virus killing [2] | amount of Salmonella reduced ([3]; riboflavin 100 μmol/L, incubation time 40 min, illumination time 30 min, initial inoculation about 4.5×10^6 CFU/mL) [Log CFU/mL] | lethality (fatality rate) of Salmonella ([3]; riboflavin 150 μmol/L, dark incubation 40 min, illumination 30 min) [%] | fatality rate of Salmonella ([3]; riboflavin 150 μmol/L, dark incubation 40 min, illumination time 40 min) [%] | lethality (fatality rate) of Salmonella ([3]; riboflavin 150 μmol/L, dark incubation 40 min, no blue light (illumination 0 min)) | amount of Salmonella reduced ([3]; riboflavin 150 μmol/L, incubation 40 min, illumination time 20 min, initial inoculation about 6.75 Log CFU/mL) [Log CFU/mL] | amount of Salmonella reduced ([3]; riboflavin 150 μmol/L, incubation 40 min, illumination time 30 min, initial inoculation about 6.75 Log CFU/mL (Embodiment 3)) [Log CFU/mL] | amount of Salmonella reduced ([3]; riboflavin 150 μmol/L, incubation 40 min, illumination time 40 min, initial inoculation about 6.75 Log CFU/mL) [Log CFU/mL] | amount of Salmonella reduced ([3]; riboflavin 150 μmol/L, incubation 40 min, illumination time 50 min, initial inoculation about 6.75 Log CFU/mL) [Log CFU/mL] | amount of Salmonella reduced ([3]; riboflavin 150 μmol/L, incubation time 40 min, illumination time 30 min, initial inoculation about 4.5×10^6 CFU/mL (Embodiment 1)) [Log CFU/mL] | lethality of Salmonella ([3]; riboflavin 200 μmol/L, dark incubation 40 min, illumination 30 min) [%] | amount of Salmonella reduced ([3]; riboflavin 200 μmol/L, incubation time 40 min, illumination time 30 min, initial inoculation about 4.5×10^6 CFU/mL) [Log CFU/mL] | lethality of Salmonella ([3]; riboflavin concentration increased beyond 200 μmol/L, dark incubation 40 min, illumination 30 min) | photodynamic inactivation effect (Staphylococcus aureus) | influence on growth (Escherichia coli) |
| --- | --- | --- | --- | --- | --- | --- | --- | --- | --- | --- | --- | --- | --- | --- | --- | --- | --- | --- |
| Cc1cc2nc3c(=O)[nH]c(=O)nc-3n(C[C@H](O)[C@H](O)[C@H](O)CO)c2cc1C [riboflavin] | 99.88 | 8.4×10^2 CFU/g | 7.0×10^5 CFU/g | killed | 1.12 | 100 | 100 | extremely low | 2.23 | 6.21 | 6.75 | 6.75 | 6.14 | 100 | 6.21 | apparently decreased | – | – |
| chlorophyllin ester | – | – | – | – | – | – | – | – | – | – | – | – | – | – | – | – | significant photodynamic inactivation effect | no influence on the growth |
